Values quoted from earlier work in patent US20110257198A1, “PIPERIDINE DERIVATIVES USEFUL AS OREXIN ANTAGONISTS” (priority 2008, published 2011).
Ends that are not written are not given here.

Legend:
rat = settings: central administration at the onset of the normal sleep period (Hagan et al 1999)
freely-feeding rats = settings: central administration, 4 hour time period
rats [1] = settings: rats (White et al 2005)
rats [2] = settings: rats (Nair et al 2008)

| Molecule | effect on arousal (rat) | increase of food intake over control rats receiving vehicle (freely-feeding rats) | effect on hedonic eating (rats [1]) | effect on high-fat pellet self-administration (rats [2]) |
| --- | --- | --- | --- | --- |
| orexin-A: polypeptide ligand for the orexin-1 receptor; an agonist of the orexin receptors (QPLPDCCRQKTCSCRLYELLHGAGNHAAGILTL; ends and bridges not checked; cysteine pairing not given here; UniProt O43612 34-66, looked up) | dose-related increase in arousal | approximately four-fold | – | – |
| Cc1nc2ccc(NC(=O)Nc3ccnc4cccnc34)cc2o1 [SB334867] | – | – | potently reduced hedonic eating | attenuated high-fat pellet self-administration |
